# Test results from patent US20240270762A1, “PENICILLIN-BINDING PROTEIN INHIBITORS” (priority 2021, published 2024).
# pEC50, pIC50: −log10 of the molar value. Like-named read-outs stand apart in the source and are kept apart here.
# How the values were obtained:
# [1] = target: T1, PBP3 from Escherichia coli (K-12) (Escherichia coli, UniProt P0AD68); assay: Bocillin-FL fluorescence polarization competition binding, E. coli PBP3
# T1 construct: made in house
# Outline: (§1)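 Purified PBPs pre-incubated with inhibitor (E. coli PBP3 1.5 μM, 30 min; P. aeruginosa PBP3 0.75 μM, A. baumannii PBP1a 1 μM and PBP3 0.2 μM, 15 min), then Bocillin-FL 0.1 μM (0.05 μM for PBP1a) added; FP read up to 60 min. EC50 = concentration halving bound Bocillin-FL.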
# [2] = target: T2, PBP3 from Pseudomonas aeruginosa (PAO1) (Pseudomonas aeruginosa, UniProt G3XD46); assay: Bocillin-FL fluorescence polarization competition binding, P. aeruginosa PBP3; conditions: Binding affinity to P. aeruginosa PBP3; fluorescence polarization competition binding assay using Bocillin-FL; read-out: P. aeruginosa PBP3 Potency
# T2 construct: made in house
# Outline: as §1
# P. aeruginosa CDC-0054 = assay: microbe, parasite or virus in culture; type: cell-based; conditions: Pseudomonas aeruginosa, CDC0054, read-out: Minimum inhibitory concentration, P. aeruginosa CDC-0054
# P. aeruginosa CDC-0095 = assay: microbe, parasite or virus in culture; type: cell-based; conditions: Pseudomonas aeruginosa, CDC0095, read-out: Minimum inhibitory concentration, P. aeruginosa CDC-0095
# A. baumannii CDC-0033 = assay: microbe, parasite or virus in culture; type: cell-based; conditions: Acinetobacter baumannii, CDC0033, read-out: MIC, A. baumannii CDC-0033
# [3] = system: N. gonorrhoeae ATCC 49226; assay: Liquid broth MIC in Fastidious broth; conditions: Neisseria gonorrhoeae
# N. gonorrhoeae FA1090 = assay: Liquid broth MIC in Fastidious broth; conditions: Neisseria gonorrhoeae
# N. gonorrhoeae MS11 = assay: Liquid broth MIC in Fastidious broth; conditions: Neisseria gonorrhoeae
# N. gonorrhoeae WHO G = assay: Liquid broth MIC in Fastidious broth; conditions: Neisseria gonorrhoeae
# N. gonorrhoeae WHO M = assay: Liquid broth MIC in Fastidious broth; conditions: Neisseria gonorrhoeae
# N. gonorrhoeae WHO K = assay: Liquid broth MIC in Fastidious broth; conditions: Neisseria gonorrhoeae
# N. gonorrhoeae WHO Z = assay: Liquid broth MIC in Fastidious broth; conditions: Neisseria gonorrhoeae
# [4] = ATCC49226, read-out: Minimum Inhibitory Concentration (MIC), N. gonorrhoeae ATCC 49226
# [5] = FA1090, read-out: Minimum Inhibitory Concentration (MIC), N. gonorrhoeae FA 1090
# [6] = MS11, read-out: Minimum Inhibitory Concentration (MIC), N. gonorrhoeae MS11
# [7] = read-out: Minimum Inhibitory Concentration (MIC), N. gonorrhoeae WHO G
# [8] = read-out: Minimum Inhibitory Concentration (MIC), N. gonorrhoeae WHO M
# [9] = read-out: Minimum Inhibitory Concentration (MIC), N. gonorrhoeae WHO K
# [10] = read-out: Minimum Inhibitory Concentration (MIC), N. gonorrhoeae WHO Z
# T2 sequence (G3XD46 whole entry): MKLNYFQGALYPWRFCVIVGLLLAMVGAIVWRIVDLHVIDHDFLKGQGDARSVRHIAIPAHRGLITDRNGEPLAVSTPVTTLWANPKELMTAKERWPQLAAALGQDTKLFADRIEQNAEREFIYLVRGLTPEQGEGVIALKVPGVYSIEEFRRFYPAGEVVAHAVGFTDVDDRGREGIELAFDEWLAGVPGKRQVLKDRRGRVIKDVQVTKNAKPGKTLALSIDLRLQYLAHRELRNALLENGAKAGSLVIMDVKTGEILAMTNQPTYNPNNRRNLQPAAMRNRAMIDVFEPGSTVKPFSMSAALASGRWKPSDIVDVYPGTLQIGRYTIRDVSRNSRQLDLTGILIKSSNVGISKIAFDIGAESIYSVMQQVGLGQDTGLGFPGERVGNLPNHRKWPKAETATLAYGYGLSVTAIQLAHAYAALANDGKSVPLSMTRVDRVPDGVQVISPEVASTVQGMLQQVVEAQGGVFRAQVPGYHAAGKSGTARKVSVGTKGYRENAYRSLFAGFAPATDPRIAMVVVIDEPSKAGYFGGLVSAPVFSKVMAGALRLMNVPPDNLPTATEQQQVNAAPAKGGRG
# T1 sequence (P0AD68 1-577): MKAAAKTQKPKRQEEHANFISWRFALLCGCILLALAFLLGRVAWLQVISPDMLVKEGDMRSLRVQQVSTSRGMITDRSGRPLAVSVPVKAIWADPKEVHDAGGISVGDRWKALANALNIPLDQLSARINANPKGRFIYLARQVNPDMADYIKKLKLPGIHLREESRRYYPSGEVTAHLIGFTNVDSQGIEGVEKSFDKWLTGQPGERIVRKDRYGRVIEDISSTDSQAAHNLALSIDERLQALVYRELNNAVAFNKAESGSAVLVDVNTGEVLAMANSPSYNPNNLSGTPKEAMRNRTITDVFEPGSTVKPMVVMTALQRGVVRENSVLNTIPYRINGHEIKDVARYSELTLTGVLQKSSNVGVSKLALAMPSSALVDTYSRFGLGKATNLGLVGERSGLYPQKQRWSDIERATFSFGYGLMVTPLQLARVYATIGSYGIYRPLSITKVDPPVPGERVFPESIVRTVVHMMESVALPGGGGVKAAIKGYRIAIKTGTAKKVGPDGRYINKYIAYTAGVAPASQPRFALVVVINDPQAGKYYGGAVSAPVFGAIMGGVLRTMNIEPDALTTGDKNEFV
Structure (SMILES),pEC50 [1],pIC50 [2],MIC (P. aeruginosa CDC-0054) [µg/mL],MIC (P. aeruginosa CDC-0095) [µg/mL],MIC (A. baumannii CDC-0033) [µg/mL],"MIC ([3]; ATCC49226, read-out: Minimum Inhibitory Concentration, ATCC 49226) [µg/mL]","MIC (N. gonorrhoeae FA1090; FA1090, read-out: Minimum Inhibitory Concentration, FA 1090) [µg/mL]","MIC (N. gonorrhoeae MS11; MS11, read-out: Minimum Inhibitory Concentration, MS11) [µg/mL]","MIC (N. gonorrhoeae WHO G; read-out: Minimum Inhibitory Concentration, WHO G) [µg/mL]","MIC (N. gonorrhoeae WHO M; read-out: Minimum Inhibitory Concentration, WHO M) [µg/mL]","MIC (N. gonorrhoeae WHO K; read-out: Minimum Inhibitory Concentration, WHO K) [µg/mL]","MIC (N. gonorrhoeae WHO Z; read-out: Minimum Inhibitory Concentration, WHO Z) [µg/mL]","MIC [3, 4] [µg/mL]",MIC (N. gonorrhoeae FA1090; [5]) [µg/mL],MIC (N. gonorrhoeae MS11; [6]) [µg/mL],MIC (N. gonorrhoeae WHO G; [7]) [µg/mL],MIC (N. gonorrhoeae WHO M; [8]) [µg/mL],MIC (N. gonorrhoeae WHO K; [9]) [µg/mL],MIC (N. gonorrhoeae WHO Z; [10]) [µg/mL]
"O=C(NCCN1CCN(C(=O)NC(C(=O)N[C@H]2Cc3ccc(F)c(C(=O)O)c3OB2O)c2cc(F)c(O)c(O)c2Cl)C1=O)c1nccs1 (stereo partly drawn) [Example 247, (3R)-3-(2-(2-chloro-5-fluoro-3,4-dihydroxyphenyl)-2-(2-oxo-3-(2-(thiazole-2-carboxamido)ethyl)imidazolidine-1-carboxamido)acetamido)-7-fluoro-2-hydroxy-3,4-dihydro-2H-benzo[e][1,2]oxaborinine-8-carboxylic acid]",4.30 to 5.00,> 5.00,2 to 4,2 to 4,2 to 4,16 to 32,4 to 8,16 to 32,16 to 32,16 to 32,> 64,16 to 32,,,,,,,
"O=C(NCCCN1CCN(C(=O)NC(C(=O)N[C@H]2Cc3ccc(F)c(C(=O)O)c3OB2O)c2cc(F)c(O)c(O)c2Cl)C(=O)C1=O)Nc1ccc(O)cc1 (stereo partly drawn) [Example 227, (3R)-3-(2-(2-chloro-5-fluoro-3,4-dihydroxyphenyl)-2-(4-(3-(3-(4-hydroxyphenyl)ureido)propyl)-2,3-dioxopiperazine-1-carboxamido)acetamido)-7-fluoro-2-hydroxy-3,4-dihydro-2H-benzo[e][1,2]oxaborinine-8-carboxylic acid]",4.30 to 5.00,> 5.00,< 1,< 1,2 to 4,,,,,,,,16 to 32,1 to 2,16 to 32,4 to 8,4 to 8,> 64,16 to 32
"O=C(NCCCN1CCN(C(=O)NC(C(=O)N[C@H]2Cc3ccc(F)c(C(=O)O)c3OB2O)c2cc(F)c(O)c(O)c2Cl)C(=O)C1=O)Nc1cccc(O)c1 (stereo partly drawn) [Example 206, (3R)-3-(2-(2-chloro-5-fluoro-3,4-dihydroxyphenyl)-2-(4-(3-(3-(3-hydroxyphenyl)ureido)propyl)-2,3-dioxopiperazine-1-carboxamido)acetamido)-7-fluoro-2-hydroxy-3,4-dihydro-2H-benzo[e][1,2]oxaborinine-8-carboxylic acid]",> 5.00,> 5.00,< 1,< 1,2 to 4,,,,,,,,16 to 32,1 to 2,16 to 32,4 to 8,4 to 8,> 64,16 to 32
"O=C(NCCN1CCN(C(=O)NC(C(=O)N[C@H]2Cc3ccc(F)c(C(=O)O)c3OB2O)c2cc(F)c(O)c(O)c2Cl)C(=O)C1=O)c1cccnc1 (stereo partly drawn) [Example 217, (3R)-3-(2-(2-chloro-5-fluoro-3,4-dihydroxyphenyl)-2-(4-(2-(nicotinamido)ethyl)-2,3-dioxopiperazine-1-carboxamido)acetamido)-7-fluoro-2-hydroxy-3,4-dihydro-2H-benzo[e][1,2]oxaborinine-8-carboxylic acid]",> 5.00,> 5.00,< 1,2 to 4,8 to 16,,,,,,,,16 to 32,1 to 2,16 to 32,16 to 32,16 to 32,> 64,16 to 32
"O=C(CN1CCN(C(=O)NC(C(=O)N[C@H]2Cc3ccc(F)c(C(=O)O)c3OB2O)c2cc(F)c(O)c(O)c2Cl)C(=O)C1=O)Nc1ccncc1 (stereo partly drawn) [Example 233, (3R)-3-(2-(2-chloro-5-fluoro-3,4-dihydroxyphenyl)-2-(2,3-dioxo-4-(2-oxo-2-(pyridin-4-ylamino)ethyl)piperazine-1-carboxamido)acetamido)-7-fluoro-2-hydroxy-3,4-dihydro-2H-benzo[e][1,2]oxaborinine-8-carboxylic acid]",> 5.00,> 5.00,< 1,2 to 4,8 to 16,,,,,,,,4 to 8,1 to 2,16 to 32,4 to 8,4 to 8,16 to 32,16 to 32
